Results as given in patent publication US7173062B2, “Method for the improvement of skin wrinkles using retinyl retinoate” (Enprani Co., Ltd., priority 2001, dated 2007).

What was measured:
RXR α, β, γ = experiment: Activity for RXR (CAT reporter in HaCaT cells); format: cell-based; settings: 1 μM, CAT ELISA
Protocol: The effect of the retinol derivatives on the activity of RAR and RXR was examined as follows.
Experimental procedure: Recombinant gene of DR5-tk-CAT or DR1-tk-CAT comprising DR1 or DR5 as a response element of RAR/RXR, […] promoter, and CAT (chloramphenicol acetyl transferase) was suitably combined with a plasmid DNA that expresses RAR α, β, γ and cotransfected to HaCaT cell line, a skin cancer cell line, with Lipofectamin (GibcoBRL). Then, the cells were incubated in DMEM/10% FBS medium for 1 day, retinol derivative was added in a concentration of 1 μM, and the cells were incubated again for 1 day under the condition of 5% CO2 and 37° C. The cells were washed with phosphate-buffered salione (PBS). Proteins were extracted from each cell, the activity of β-galactosidase was assayed, and the amount of protein was measured to determine the transfection efficiency. Further, the degree of transcription for RAR or RXR was analyzed by CAT ELISA (Roche Molecular Biochemicals, Mannheim, Germany).

[1] = system: normal human fibroblast (Newborn); experiment: Cell toxicity test (MTT method); format: cell-based; settings: comparison in words
Protocol: Cell toxicity of the compound of formula (1) is examined at concentrations ranging from 10^−6 to 10^−3%(W/V) using normal human fibroblast (Newborn), and the skin irritating property is examined by a patch test for the skin of normal adults. Further, the effect of increasing the collagen synthesis in a human fibroblast cell is measured to identify the cell regeneration effect of the compound of formula (1), photostability is identified by measuring ^1H NMR of the compound of formula (1) after the compound is irradiated by UV light (356 nm) at certain intervals of time, and thermal stability is identified by quantifying the amount at 40° C. (Experiments 1 to 5).
In order to verify the primary stability as a material for medicines and cosmetics, cell toxicity of the retinal retaliate of formula (1) was determined according to MTT method (see: Mossman T., Rapid calorimetric assay for cellular growth & amp;survival:application to proliferation & amp;cytotoxity assays. Journal of Immunological Methods 65, 55–63, 1983) using normal human fibroblast (Newborn) and the results are shown in FIG. 1.

[2] = system: AP-1 (comprising c-Jun protein); experiment: Inhibition of activity of AP-1 protein (Coll-CAT collagenase promoter reporter in HaCaT cells); format: cell-based; settings: for inhibition of the expression of collagenase: cells treated together with RAR α (c-Jun expressed)
Protocol: AP-1 (comprising c-Jun protein) is a transcription factor inducing the expression of collagenase that is a major cause of skin wrinkles. […] Therefore, studies thereabout were carried out in a similar manner to Experiment 6 as follows.
Experimental procedure: CAT reporter (Coll-CAT) having the collagenase promoter wherein AP-1 response element (TRE) is contained, was transfected into HaCaT cell line, a skin cancer cell line, using a liposome. Then, the degree of inhibition against the activity of AP-1 by retinol derivatives was measured through CAT ELISA in a similar manner to Experiment 6. Further, the effect of retinol derivatives on the transcriptional activity of c-Jun (a protein that induces transfer of cancer, skin aging and inflammation, and consists of homologous isomers or heterologous isomers), a constitutional element of AP-1, was examined by cotransfecting c-Jun or RAR α expression vector.

[3] = Thermal stability test (quantitative HPLC); format: physicochemical; settings: humidity 58%, in % (unit assumed)
Protocol: In order to compare thermal stability of the compound of formula (1) with retinol, phase stability for 1 month in a thermohygrostat (humidity: 58%) of room temperature, 40° C., and 4° C. was examined by a quantitative HPLC analysis under the following condition.
1) Column: Capcellpak UG 120 (5 μm, 4.6 mm*150 mm, shiseido, Japan)
3) Detector: UV(PDA 326 nm), • Fluorescence: Ex: 326nrm, Em: 460 nm

[4] = Photostability test (UV-A 356 nm, 1H NMR); format: physicochemical; parameters: key: 4 = No qualitative change in ^1H NMR spectrum; 3 = Minute noise but no qualitative change in ^1H NMR spectrum; 2 = Clear noise and some qualitative change in ^1H NMR spectrum; 1 = Qualitative confirmation is difficult in ^1H NMR spectrum; settings: room temperature
Protocol: In order to examine photostability of the compound of formula (1) compared with retinol, 10 mg of sample was irradiated by UV-A light (wavelength 356 nm) using a Spectroline (Model CM-10; Fluorescence analysis cabinet; Spectronics Corporation, Westbury, N.Y., USA) at certain intervals of time at room temperature.

skin of normal adults = experiment: Test for skin irritation property (closed patch test); format: in vivo, human; settings: closed patch test 24 hours, 20 adults
Protocol: In order to examine the skin irritation of the compound of formula (1), a patch test for the skin of normal adults was carried out. As the carrier, capryl caprylic triglyceride or the conventional O/W formulation was used, and twenty (20) adults per a group were tested for 24 hours.
The conventional O/W formulation used in the present experiment was prepared according to the following procedure.
Each of the aqueous part of Nos. 1–6 and the oily part of Nos. 7–13 as shown in the following Table 1 was heated to 75–80° C. to be thoroughly dissolved. The oily part was slowly added to the aqueous part and emulsification was performed for 5 minutes at 75–80° C. in a homomixer of 3000rpm. During the emulsification, the mixture was neutralized by the neutralizing agent of No. 14. After the first emulsification, the mixture was cooled, the retinal retaliate and fragrance of Nos. 15–16 were added at 50–55° C., and then the second emulsification was carried out for 3 minutes in a homomixer of 3000rpm. The mixture was cooled again to 27–30° C. to prepare the composition of O/W formulation.
From the experimental results, the irritation indexes were calculated according to the following Equation 1 and the results are represented in the following Table 2. Irritation index={Σ(Test Value×Number of Examinees Corresponding to the Test Value)/(Total Examinees×The Maximum Test Value)×100 Equation 1
Test Value +++: 5, ++: 4, +: 3, +−: 2, −:1
The degree of irritation was determined according to the following standards:
1.9 or less: Minute irritation, 2.0–2.9: Weak irritation, 3.0–3.9: Moderate irritation, 4.0 or more: Strong irritation

[5] = Condition of expression: c-Jun + RAR α, HaCaT, Coll-CAT, untreated = 8.6
[6] = Condition of expression: c-Jun, HaCaT, Coll-CAT, untreated = 8.6
[7] = Condition of expression: — (no c-Jun or RAR α vector), HaCaT, Coll-CAT, untreated = 1.0
[8] = 0.075% in C.C.T (capryl caprylic triglyceride)

Row | Compound | Relative activity against RXR α, β, γ (RXR α, β, γ; Control = 1.0) | Relative inhibition against the expression of collagenase [2, 5] | Relative inhibition against the expression of collagenase [2, 6] | Relative inhibition against the expression of collagenase [2, 7] | inhibition of the expression of collagenase [2] | Thermal stability (amount by quantitative HPLC) ([3]; After 1 week, 4° C.) | Thermal stability (amount by quantitative HPLC) ([3]; After 1 week, 40° C.) | Thermal stability (amount by quantitative HPLC) ([3]; After 1 week, r.t.) | Thermal stability (amount by quantitative HPLC) ([3]; After 2 weeks, 4° C.) | Thermal stability (amount by quantitative HPLC) ([3]; After 2 weeks, 40° C.) | Thermal stability (amount by quantitative HPLC) ([3]; After 2 weeks, r.t.) | Thermal stability (amount by quantitative HPLC) ([3]; After 4 weeks, 4° C.) | Thermal stability (amount by quantitative HPLC) ([3]; After 4 weeks, 40° C.) | Thermal stability (amount by quantitative HPLC) ([3]; After 4 weeks, r.t.) | Thermal stability (amount by quantitative HPLC) ([3]; Initial value, 4° C.) | Thermal stability (amount by quantitative HPLC) ([3]; Initial value, 40° C.) | Thermal stability (amount by quantitative HPLC) ([3]; Initial value, r.t.) | Photostability level ([4]; After 0 hour, 10 mg sample) | Photostability level ([4]; After 2 hours) | Photostability level ([4]; After 12 hours) | also measured
1 | CC1=C(/C=C/C(C)=C/C=C/C(C)=C/COC(=O)/C=C(C)/C=C/C=C(C)/C=C/C2=C(C)CCCC2(C)C)C(C)(C)CCC1 [Compound of formula (1), Retinyl retinoate] | 1.0 | 4.1 | 6.7 | 0.7 | about 52% | 100 | 74.46 | 92.77 | 100 | 70.25 | 90.45 | 99.65 | 68.23 | 89.21 | 100 | 100 | 100 | 4 | 4 | 3 | cell toxicity (FIG. 1) [1]: lower intracellular toxicity than retinol, retinoic acid, or derivatives thereof; effect on / inhibitory activity against c-Jun (AP-1), in words ([2]; HaCaT, Coll-CAT, c-Jun / RAR α cotransfection): lower inhibitory activity against c-Jun than retinoic acid, but higher one than retinol; Photostability level ([4]; After 24 hours): 3; Photostability level ([4]; After 48 hours): 3; Irritation Index (skin of normal adults; [8]): 1.3; Degree of Irritation (skin of normal adults; 0.075% in C.C.T): Minute irritation (1.9 or less: Minute irritation); Degree of Irritation (skin of normal adults; 0.3% in C.C.T): Minute irritation (1.9 or less: Minute irritation); Irritation Index (skin of normal adults; 0.3% in C.C.T): 1.3; Degree of Irritation (skin of normal adults; 0.3% in O/W Formulation): Weak irritation (2.0–2.9: Weak irritation); Irritation Index (skin of normal adults; 0.3% in O/W Formulation): 2.0; Degree of Irritation (skin of normal adults; 0.55% in C.C.T): Minute irritation (1.9 or less: Minute irritation); Irritation Index (skin of normal adults; 0.55% in C.C.T): 1.3
2 | CC1=C(/C=C/C(C)=C/C=C/C(C)=C/CO)C(C)(C)CCC1 [Retinol] | 1.0 | 5.8 | 7.3 | 0.8 | about 33% | 100 | 56.08 | 74.27 | 98.23 | 43.26 | 65.23 | 95.52 | 34.51 | 52.23 | 100 | 100 | 100 | 4 | 3 | 2 | Relative activity against RXR α, β, γ (RXR α, β, γ; Control = 1.0, listed as retinol): no activity; Photostability level ([4]; After 24 hours): 1; Photostability level ([4]; After 48 hours): 1; Irritation Index (skin of normal adults; [8]): 2.5; Degree of Irritation (skin of normal adults; 0.075% in C.C.T): Weak irritation (2.0–2.9: Weak irritation)
